Data reported in ChEMBL document CHEMBL4219190, “Studies on synthesis of novel pyrido[2,3-d]pyrimidine derivatives, evaluation of their antimicrobial activity and molecular docking” (Bioorg Med Chem Lett, 2018).
In brackets after ≈: the same amount, converted by molar mass. Activity calls are given as the source filed them. No cut-off for these calls is given here.

Assays:
Bacillus subtilis [1] = assay: Bactericidal activity against Bacillus subtilis MTCC 121 incubated for 24 hrs followed by transfer of microbial suspension to Mueller Hinton agar plates and measured after 24 hrs post transfer; assay type: functional; conditions: MTCC 121, 24 h
Candida albicans [2] = assay: Fungicidal activity against Candida albicans MTCC 183 incubated for 24 hrs followed by transfer of microbial suspension to Sabouraud dextrose agar plates and measured after 24 hrs post transfer; assay type: functional; conditions: MTCC 183, 24 h
[Candida] aaseri [3] = Fungicidal activity against Candida aaseri MTCC 1962 incubated for 24 hrs followed by transfer of microbial suspension to Sabouraud dextrose agar plates and measured after 24 hrs post transfer; assay type: functional; conditions: Yamadazyma aaseri, MTCC 1962, 24 h
Candida albicans [4] = assay: Fungicidal activity against Candida albicans MTCC 7315 incubated for 24 hrs followed by transfer of microbial suspension to Sabouraud dextrose agar plates and measured after 24 hrs post transfer; assay type: functional; conditions: MTCC 7315, 24 h
Escherichia coli [5] = assay: Antibacterial activity against Escherichia coli MTCC 739 after 24 hrs by well diffusion method; assay type: functional; conditions: MTCC 739, 24 h
Candida albicans [6] = assay: Antifungal activity against Candida albicans MTCC 3017 after 24 hrs by well diffusion method; assay type: functional; conditions: MTCC 3017, 24 h
Pichia kudriavzevii [7] = assay: Antifungal activity against Candida krusei MTCC 3020 after 24 hrs by well diffusion method; assay type: functional
Candida albicans [8] = assay: Fungicidal activity against Candida albicans MTCC 3017 incubated for 24 hrs followed by transfer of microbial suspension to Sabouraud dextrose agar plates and measured after 24 hrs post transfer; assay type: functional; conditions: MTCC 3017, 24 h
Candida albicans [9] = assay: Fungicidal activity against Candida albicans MTCC 3958 incubated for 24 hrs followed by transfer of microbial suspension to Sabouraud dextrose agar plates and measured after 24 hrs post transfer; assay type: functional; conditions: MTCC 3958, 24 h
Candida albicans [10] = assay: Fungicidal activity against Candida albicans MTCC 3018 incubated for 24 hrs followed by transfer of microbial suspension to Sabouraud dextrose agar plates and measured after 24 hrs post transfer; assay type: functional; conditions: MTCC 3018, 24 h
Candida albicans [11] = assay: Inhibition of ergosterol in Candida albicans MTCC 183 after 20 hrs by UV spectrophotometric method; assay type: functional, organism-based
Candida albicans [12] = assay: Fungicidal activity against Candida albicans MTCC 227 incubated for 24 hrs followed by transfer of microbial suspension to Sabouraud dextrose agar plates and measured after 24 hrs post transfer; assay type: functional; conditions: MTCC 227, 24 h
Pichia sporocuriosa [13] = assay: Fungicidal activity against Issatchenkia hanoiensis MTCC 4755 incubated for 24 hrs followed by transfer of microbial suspension to Sabouraud dextrose agar plates and measured after 24 hrs post transfer; assay type: functional; conditions: MTCC 4755, 24 h
Staphylococcus aureus [14] = assay: Antibacterial activity against Staphylococcus aureus MLS16 MTCC 2940 after 24 hrs by well diffusion method; assay type: functional; conditions: MLS16 MTCC 2940, 24 h
Candida parapsilosis [15] = assay: Antifungal activity against Candida parapsilosis MTCC 1744 after 24 hrs by well diffusion method; assay type: functional; conditions: MTCC 1744, 24 h
Raoultella planticola [16] = assay: Antibiofilm activity against Klebsiella planticola MTCC 530 after 24 hrs by crystal violet staining-based assay; assay type: functional, organism-based; conditions: Klebsiella planticola, MTCC 530, 24 h; read-out: IC50
Raoultella planticola [17] = assay: Antibacterial activity against Klebsiella planticola MTCC 530 after 24 hrs by well diffusion method; assay type: functional; conditions: MTCC 530, 24 h
Escherichia coli [18] = assay: Bactericidal activity against Escherichia coli MTCC 739 incubated for 24 hrs followed by transfer of microbial suspension to Mueller Hinton agar plates and measured after 24 hrs post transfer; assay type: functional; conditions: MTCC 739, 24 h
Pseudomonas aeruginosa [19] = assay: Antibacterial activity against Pseudomonas aeruginosa MTCC 2453 after 24 hrs by well diffusion method; assay type: functional; conditions: MTCC 2453, 24 h
Candida albicans [20] = assay: Fungicidal activity against Candida albicans MTCC 4748 incubated for 24 hrs followed by transfer of microbial suspension to Sabouraud dextrose agar plates and measured after 24 hrs post transfer; assay type: functional; conditions: MTCC 4748, 24 h
Bacillus subtilis [21] = assay: Antibiofilm activity against Bacillus subtilis MTCC 121 after 24 hrs by crystal violet staining-based assay; assay type: functional, organism-based; conditions: Bacillus subtilis, MTCC 121, 24 h; read-out: IC50
Staphylococcus aureus [22] = assay: Antibacterial activity against Staphylococcus aureus MTCC 96 after 24 hrs by well diffusion method; assay type: functional; conditions: MTCC 96, 24 h
Candida albicans [23] = assay: Antifungal activity against Candida albicans MTCC 227 after 24 hrs by well diffusion method; assay type: functional; conditions: MTCC 227, 24 h
Staphylococcus aureus [24] = assay: Bactericidal activity against Staphylococcus aureus MLS16 MTCC 2940 incubated for 24 hrs followed by transfer of microbial suspension to Mueller Hinton agar plates and measured after 24 hrs post transfer; assay type: functional; conditions: MLS16 MTCC 2940, 24 h
Candida albicans [25] = assay: Antifungal activity against Candida albicans MTCC 854 after 24 hrs by well diffusion method; assay type: functional; conditions: MTCC 854, 24 h
Pichia kudriavzevii [26] = assay: Fungicidal activity against Candida krusei MTCC 3020 incubated for 24 hrs followed by transfer of microbial suspension to Sabouraud dextrose agar plates and measured after 24 hrs post transfer; assay type: functional
Staphylococcus aureus [27] = assay: Antibiofilm activity against Staphylococcus aureus MTCC 96 after 24 hrs by crystal violet staining-based assay; assay type: functional, organism-based; conditions: Staphylococcus aureus, MTCC 96, 24 h; read-out: IC50
Candida albicans [28] = assay: Antifungal activity against Candida albicans MTCC 4748 after 24 hrs by well diffusion method; assay type: functional; conditions: MTCC 4748, 24 h
Candida albicans [29] = assay: Antifungal activity against Candida albicans MTCC 7315 after 24 hrs by well diffusion method; assay type: functional; conditions: MTCC 7315, 24 h
Pichia sporocuriosa [30] = assay: Antifungal activity against Issatchenkia hanoiensis MTCC 4755 after 24 hrs by well diffusion method; assay type: functional; conditions: MTCC 4755, 24 h
[Candida] aaseri [31] = Antifungal activity against Candida aaseri MTCC 1962 after 24 hrs by well diffusion method; assay type: functional; conditions: Yamadazyma aaseri, MTCC 1962, 24 h
Micrococcus luteus [32] = assay: Bactericidal activity against Micrococcus luteus MTCC 2470 incubated for 24 hrs followed by transfer of microbial suspension to Mueller Hinton agar plates and measured after 24 hrs post transfer; assay type: functional; conditions: MTCC 2470, 24 h
Raoultella planticola [33] = assay: Bactericidal activity against Klebsiella planticola MTCC 530 incubated for 24 hrs followed by transfer of microbial suspension to Mueller Hinton agar plates and measured after 24 hrs post transfer; assay type: functional; conditions: MTCC 530, 24 h
Candida parapsilosis [34] = assay: Fungicidal activity against Candida parapsilosis MTCC 1744 incubated for 24 hrs followed by transfer of microbial suspension to Sabouraud dextrose agar plates and measured after 24 hrs post transfer; assay type: functional; conditions: Lodderomyces parapsilosis, MTCC 1744, 24 h
Staphylococcus aureus [35] = assay: Antibiofilm activity against Staphylococcus aureus MLS16 MTCC 2940 after 24 hrs by crystal violet staining-based assay; assay type: functional, organism-based; conditions: Staphylococcus aureus, MLS16 MTCC 2940, 24 h; read-out: IC50
Candida albicans [36] = assay: Fungicidal activity against Candida albicans MTCC 1637 incubated for 24 hrs followed by transfer of microbial suspension to Sabouraud dextrose agar plates and measured after 24 hrs post transfer; assay type: functional; conditions: MTCC 1637, 24 h
Nakaseomyces glabratus [37] = assay: Fungicidal activity against Candida glabrata MTCC 3019 incubated for 24 hrs followed by transfer of microbial suspension to Sabouraud dextrose agar plates and measured after 24 hrs post transfer; assay type: functional
Candida albicans [38] = assay: Antifungal activity against Candida albicans MTCC 3018 after 24 hrs by well diffusion method; assay type: functional; conditions: MTCC 3018, 24 h
Micrococcus luteus [39] = assay: Antibacterial activity against Micrococcus luteus MTCC 2470 after 24 hrs by well diffusion method; assay type: functional; conditions: MTCC 2470, 24 h
Staphylococcus aureus [40] = assay: Bactericidal activity against Staphylococcus aureus MTCC 96 incubated for 24 hrs followed by transfer of microbial suspension to Mueller Hinton agar plates and measured after 24 hrs post transfer; assay type: functional; conditions: MTCC 96, 24 h
Pseudomonas aeruginosa [41] = assay: Bactericidal activity against Pseudomonas aeruginosa MTCC 2453 incubated for 24 hrs followed by transfer of microbial suspension to Mueller Hinton agar plates and measured after 24 hrs post transfer; assay type: functional; conditions: MTCC 2453, 24 h
Candida albicans [42] = assay: Antifungal activity against Candida albicans MTCC 1637 after 24 hrs by well diffusion method; assay type: functional; conditions: MTCC 1637, 24 h
Bacillus subtilis [43] = assay: Antibacterial activity against Bacillus subtilis MTCC 121 after 24 hrs by well diffusion method; assay type: functional; conditions: MTCC 121, 24 h
Candida albicans [44] = assay: Fungicidal activity against Candida albicans MTCC 854 incubated for 24 hrs followed by transfer of microbial suspension to Sabouraud dextrose agar plates and measured after 24 hrs post transfer; assay type: functional; conditions: MTCC 854, 24 h
Candida albicans [45] = assay: Antifungal activity against Candida albicans MTCC 3958 after 24 hrs by well diffusion method; assay type: functional; conditions: MTCC 3958, 24 h
Pseudomonas aeruginosa [46] = assay: Antibiofilm activity against Pseudomonas aeruginosa MTCC 2453 after 24 hrs by crystal violet staining-based assay; assay type: functional, organism-based; conditions: Pseudomonas aeruginosa, MTCC 2453, 24 h; read-out: IC50
Candida albicans [47] = assay: Antifungal activity against Candida albicans MTCC 183 after 24 hrs by well diffusion method; assay type: functional; conditions: MTCC 183, 24 h
Nakaseomyces glabratus [48] = assay: Antifungal activity against Candida glabrata MTCC 3019 after 24 hrs by well diffusion method; assay type: functional

## CN1CCN(C(=O)c2nc(-c3ccccc3)c3c(C(F)(F)F)cc(-c4ccccc4)nc3n2)CC1
Bacillus subtilis [1]
  MBC: 31.2 µg/mL (≈ 65.3 µM)
Candida albicans [2]
  MFC: 3.9 µg/mL (≈ 8.17 µM)
[Candida] aaseri [3]
  MFC: 15.6 µg/mL (≈ 32.7 µM)
Candida albicans [4]
  MFC: 62.5 µg/mL (≈ 131 µM)
Escherichia coli [5]
  MIC: 15.6 µg/mL (≈ 32.7 µM)
Candida albicans [6]
  MIC: 3.9 µg/mL (≈ 8.17 µM)
Pichia kudriavzevii [7]
  MIC: inactive
Candida albicans [8]
  MFC: 7.8 µg/mL (≈ 16.3 µM)
Candida albicans [9]
  MFC: 15.6 µg/mL (≈ 32.7 µM)
Candida albicans [10]
  MFC: 31.2 µg/mL (≈ 65.3 µM)
Candida albicans [11]
  inhibition: Dose-dependent effect
Candida albicans [12]
  MFC: 7.8 µg/mL (≈ 16.3 µM)
Pichia sporocuriosa [13]
  MFC: 31.2 µg/mL (≈ 65.3 µM)
Staphylococcus aureus [14]
  MIC: 15.6 µg/mL (≈ 32.7 µM)
Candida parapsilosis [15]
  MIC: 31.2 µg/mL (≈ 65.3 µM)
Raoultella planticola [16]
  IC50: 21.6 µg/mL (≈ 45.2 µM)
Raoultella planticola [17]
  MIC: 31.2 µg/mL (≈ 65.3 µM)
Escherichia coli [18]
  MBC: 31.2 µg/mL (≈ 65.3 µM)
Pseudomonas aeruginosa [19]
  MIC: 31.2 µg/mL (≈ 65.3 µM)
Candida albicans [20]
  MFC: 31.2 µg/mL (≈ 65.3 µM)
Bacillus subtilis [21]
  IC50: 10.8 µg/mL (≈ 22.6 µM)
Staphylococcus aureus [22]
  MIC: 7.8 µg/mL (≈ 16.3 µM)
Candida albicans [23]
  MIC: 3.9 µg/mL (≈ 8.17 µM)
Staphylococcus aureus [24]
  MBC: 31.2 µg/mL (≈ 65.3 µM)
Candida albicans [25]
  MIC: 7.8 µg/mL (≈ 16.3 µM)
Pichia kudriavzevii [26]
  MFC: inactive
Staphylococcus aureus [27]
  IC50: 5.4 µg/mL (≈ 11.3 µM)
Candida albicans [28]
  MIC: 15.6 µg/mL (≈ 32.7 µM)
Candida albicans [29]
  MIC: 31.2 µg/mL (≈ 65.3 µM)
Pichia sporocuriosa [30]
  MIC: 15.6 µg/mL (≈ 32.7 µM)
[Candida] aaseri [31]
  MIC: 7.8 µg/mL (≈ 16.3 µM)
Micrococcus luteus [32]
  MBC: 15.6 µg/mL (≈ 32.7 µM)
Raoultella planticola [33]
  MBC: 62.4 µg/mL (≈ 131 µM)
Candida parapsilosis [34]
  MFC: 62.5 µg/mL (≈ 131 µM)
Staphylococcus aureus [35]
  IC50: 10.8 µg/mL (≈ 22.6 µM)
Candida albicans [36]
  MFC: 15.6 µg/mL (≈ 32.7 µM)
Nakaseomyces glabratus [37]
  MFC: inactive
Candida albicans [38]
  MIC: 15.6 µg/mL (≈ 32.7 µM)
Micrococcus luteus [39]
  MIC: 15.6 µg/mL (≈ 32.7 µM)
Staphylococcus aureus [40]
  MBC: 15.6 µg/mL (≈ 32.7 µM)
Pseudomonas aeruginosa [41]
  MBC: 62.4 µg/mL (≈ 131 µM)
Candida albicans [42]
  MIC: 7.8 µg/mL (≈ 16.3 µM)
Bacillus subtilis [43]
  MIC: 15.6 µg/mL (≈ 32.7 µM)
Candida albicans [44]
  MFC: 15.6 µg/mL (≈ 32.7 µM)
Candida albicans [45]
  MIC: 7.8 µg/mL (≈ 16.3 µM)
Pseudomonas aeruginosa [46]
  IC50: 21.6 µg/mL (≈ 45.2 µM)
Candida albicans [47]
  MIC: 3.9 µg/mL (≈ 8.17 µM)
Nakaseomyces glabratus [48]
  MIC: inactive
